Key:
HeLa cells = assay: Proliferation of HeLa cells (human cancer cells); type: cell-based; conditions: FIG. 11G
[1] = system: PAEC isolated from IPAH patients; assay: Proliferation of PAEC isolated from IPAH patients; type: cell-based, human; conditions: 3.3 mg/ml, FIG. 11E
[2] = system: PAEC isolated from Control subjects; assay: Growth of PAEC isolated from Control subjects (healthy cells); type: cell-based, human; conditions: 3.3 mg/ml, FIG. 11F
Akt = Akt phosphorylation in naive HPASMC treated with media from apoptotic cells (Western blot); type: cell-based, human; conditions: apoptotic conditioned media, 24 h, L-690,330 at 500 μM, FIG. 9C
Method: Western blot and immunoprecipitation: For an analysis of the total lung proteins, lung tissues were lysed. According to the manufacturer's protocol, the membrane proteins were isolated using Mem-PER Plus Membrane Protein Extraction Kit (ThermoFisher Scientific, Rockford, IL). Briefly, 20-40 mg of lung tissue was quickly washed in Cell WashSolution to remove any blood components, transferred to permeabilization buffer mixed with protease and phosphatase inhibitor cocktails, homogenized using Fisher Homogenizer 850 for 1 minute, and shaken in UltraCruz Shaker at 0° C. for 10 minutes. The homogenate was centrifuged at 16,000 g for 15 minutes to pellet permeabilized cells. The supernatant containing cytosolic proteins was carefully transferred to a separate tube. […] The reactive bands were visualized using a chemiluminescent protocol, recorded with the ChemiDoc MP Imaging System (Bio-RadLaboratories, Hercules, CA), and analyzed using Image Laboratory software. […]
Cell culture: Human pulmonary artery endothelial cells (HPAEC; cat. no. 3100, lot no. 3904) and human pulmonary artery smooth muscle cells (HPASMC; cat. no. 3110, lot no. 0294) were purchased from ScienCell (Carlsbad, CA), one donor for each cell type. […] The level of apoptosis was quantified using Apoptosis and Necrosis Quantification Kit (Biotum, Fremont, CA) according to the manufacturer's protocol. […]

RAGE/IMPA1 = target: T1, RAGE/IMPA1 (Rattus norvegicus, UniProt P97697); assay: RAGE/IMPA1 co-immunoprecipitation in lungs of SU/Hx rats after peptide injection; type: in vivo; conditions: 5 μg/kg i.p. daily for 1 wk, FIG. 11B
T1 construct: from tissue; host or cells: lung of Sprague-Dawley rats (SU5416/hypoxia PAH model)
T1 sequence (P97697 1-277): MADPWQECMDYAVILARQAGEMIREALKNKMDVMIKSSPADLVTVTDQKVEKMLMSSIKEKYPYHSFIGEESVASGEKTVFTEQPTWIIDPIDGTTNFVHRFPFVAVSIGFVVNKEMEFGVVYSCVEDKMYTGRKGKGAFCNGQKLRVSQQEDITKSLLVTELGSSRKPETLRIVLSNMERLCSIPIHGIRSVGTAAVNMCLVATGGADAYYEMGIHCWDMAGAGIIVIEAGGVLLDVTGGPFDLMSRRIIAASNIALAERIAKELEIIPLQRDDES
Method: (§1) Rat models of pulmonary hypertension: Thirty-two Sprague-Dawley female rats (200-250 g) were purchased from Charles River (Wilmington, MA). Animals were kept in a 12-h:12-h light-dark cycle and received standard rodent food and water ad libitum. All experimental procedures were approved by the University of Arizona's Institutional Animal Care and Use Committee. To induce PAH, rats received either the vehicle or a single dose of the VEGF receptor 2 antagonist SU5416, 50 mg/kg sc, as previously described. On the day of injection, the PAH rats were placed in a hypoxic chamber (BioSpherix, Redfield, NJ), and the oxygen was maintained at the level of 10±0.5%. The O2 and CO2 concentrations were continuously monitored (PROOX 110 BioSpherix oxygen controller and LB-2 CO2 analyzer; Sensormedics).
For immunoprecipitation (IP), RAGE antibodies conjugated to agarose beads were used according to the manufacturer's (Santa Cruz Biotechnology) protocol. Lung tissue lysate (300 μg of total protein) was rotated at room temperature with 20 μl of bead solution for 2 hours. Beads were collected by brief centrifugation (30 seconds at 1,000 g), washed four times with lysis buffer and PBS, resuspended with 30 μl of 2× Laemmli sample buffer, and boiled for 5 minutes at 95° C. The supernatant collected by centrifugation was used for Western Blot analysis as described.

SU/Hx rats = assay: SU/Hx rat model of pulmonary arterial hypertension: RV pressure and RV hypertrophy; type: in vivo; conditions: 5 μg/kg i.p. daily for 1 wk
Method: as §1
The animals were analyzed after 1 or 2 weeks of exposure to hypoxia or after 5 weeks (i.e., 3 weeks of hypoxia and 2 weeks of normoxia). The control rats were kept under normoxic conditions for the duration of the study (5 weeks). At the end of each study period, animals were anesthetized ([…], 100 mg/kg ip) and instrumented for measurement of right ventricle (RV) hemodynamics. Briefly, a PE-240 polyethylene tube was inserted into the trachea to facilitate breathing. […]

[3] = target: T2, receptor for advanced glycation endproducts (RAGE), rat, endogenous in lung tissue (rat, UniProt Q63495 23-402); assay: RAGE co-IP from PAH rat lung, mass spectrometry, immunoblot time course and PLA
T2 construct: Endogenous rat protein, pulled down from lung lysate with RAGE antibody on agarose beads or detected in situ by PLA; No construct limits apply; also called full-size RAGE
T2 sequence (Q63495 23-402 limits assumed): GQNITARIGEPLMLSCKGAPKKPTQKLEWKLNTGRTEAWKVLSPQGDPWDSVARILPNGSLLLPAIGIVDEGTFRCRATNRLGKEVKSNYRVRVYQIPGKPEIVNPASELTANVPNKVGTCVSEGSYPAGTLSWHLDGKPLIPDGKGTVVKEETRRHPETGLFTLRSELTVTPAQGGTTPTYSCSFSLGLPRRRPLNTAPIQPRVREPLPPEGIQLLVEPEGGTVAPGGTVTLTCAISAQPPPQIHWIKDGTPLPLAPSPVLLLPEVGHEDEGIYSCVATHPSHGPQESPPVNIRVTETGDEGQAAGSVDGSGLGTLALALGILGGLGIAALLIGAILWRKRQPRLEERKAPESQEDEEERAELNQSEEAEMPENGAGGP
Excerpt: FIGS. 4A, 4B, and 4C show a receptor for advanced glycation endproducts (RAGE) interacting with inositol monophosphatase 1 (IMPA1) in pulmonary arterial hypertension (PAH). Mass spectrometry analysis of proteins co-immunoprecipitated (co-IP) with RAGE from lungs identified IMPA1 as a novel RAGE interacting partner. The RAGE-IMPA1 complex was discovered in both samples from PAH animals (week 5) but not in control (peptide probability […]; 4 peptides with P>89%). […] There was no interaction between RAGE and IMPA1 in controls from week 1 RAGE/IMPA1 were efficiently co-IP (n=4 for all groups). Results are expressed as box and whisker plots (boxes: 25th to 75th percentile of the data; whiskers: minimum to maximum; the line represents the median value). *P<0.05 vs. control. Statistical analysis was performed by Newman-Keuls multiple-comparisons test. […] Images are representative of 6 pulmonary arteries/at n=4 rats/group. Gray images were taken using light microscopy (×20) to visualize the tissue structure. The square represents the area of magnification (×100). The white marker corresponds to 25 μm. […] The dotted line is traced following the external lamina of the vessel. The arrowheads point to the endothelial cells with no PLA signal; white arrows point to the cells in the pulmonary artery media and adventitia cells with a bright PLA signal. IB, immunoblot. […]

anti-RAGE/IMPA1 peptide: peptide designed based on the sequence of cytosolic tails of RAGE predicted to interact with IMPA1; probably SEQ ID NO: 1 (ILWQRRQRRG)
proliferative phenotype of HeLa cells (HeLa cells): reverses the proliferative phenotype
proliferative phenotype of PAEC isolated from IPAH patients [1]: reverses the highly proliferative phenotype
growth of PAEC isolated from Control subjects [2]: does not affect the growth

CC(Oc1ccc(O)cc1)(P(=O)(O)O)P(=O)(O)O [L-690,330]
Akt phosphorylation (Akt): significantly attenuated

ILWQRRQRRG [SEQ ID NO: 1]
RAGE/IMPA1 co-IP (RAGE/IMPA1): inhibits RAGE/IMPA1 co-IP
RVSP (right ventricle systolic pressure) (SU/Hx rats; FIG. 11C): reduces RVSP
RV hypertrophy (SU/Hx rats; FIG. 11D): reduces

B1: inositol monophosphatase 1 (IMPA1), rat, endogenous in lung tissue (enzyme, UniProt P97697 1-277, looked up)
chain: MADPWQECMDYAVILARQAGEMIREALKNKMDVMIKSSPADLVTVTDQKVEKMLMSSIKEKYPYHSFIGEESVASGEKTVFTEQPTWIIDPIDGTTNFVHRFPFVAVSIGFVVNKEMEFGVVYSCVEDKMYTGRKGKGAFCNGQKLRVSQQEDITKSLLVTELGSSRKPETLRIVLSNMERLCSIPIHGIRSVGTAAVNMCLVATGGADAYYEMGIHCWDMAGAGIIVIEAGGVLLDVTGGPFDLMSRRIIAASNIALAERIAKELEIIPLQRDDES
notes: Endogenous rat protein co-immunoprecipitated with RAGE
binding result [3]: binds

Reference: patent US20240390455A1, “METHODS AND COMPOSITIONS FOR TREATING CANCERS AND OTHER PROLIFERATIVE DISORDERS” (ARIZONA BOARD OF REGENTS ON BEHALF OF THE UNIVERSITY OF …, priority 2022, published 2024)
